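Interpolation was linear, between the two tested concentrations surrounding the appropriate level; five concentrations were tested over 48 hours in 96-well plates. GI50 is the concentration that inhibits growth by half.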 The source made the active and inactive calls. No stated cut-off is given here; in the data, active = GI50 up to about 1.1 µM and inactive = higher.
Tests used:
Assay in all cases: NCI-60 cell line screen, 48 h
LOX IMVI = system: LOX IMVI
K562 = system: K562
OVCAR-4 = system: OVCAR-4
CCRF-CEM = system: CCRF-CEM
COLO 205 = system: COLO 205
UACC-257 = system: UACC-257
NCI-H522 = system: NCI-H522
SW-620 = system: SW-620
SN12C = system: SN12C
SF-295 = system: SF-295
HT-29 = system: HT-29
CAKI-1 = system: CAKI-1
OVCAR-5 = system: OVCAR-5
SNB-19 = system: SNB-19
RPMI-8226 = system: RPMI-8226
SR = system: SR

Measured: GI50

CC(=O)Nc1ccc(-c2nnc(SCC(=O)Nc3ccc(Cl)cc3Cl)o2)cc1
inactive: LOX IMVI 27.8 µM | K562 28.8 µM | OVCAR-4 37.4 µM | CCRF-CEM 25.4 µM | COLO 205 28.6 µM | UACC-257 44.2 µM | NCI-H522 20.7 µM | SW-620 32.4 µM | SN12C 20.2 µM | SF-295 57.8 µM | HT-29 31.8 µM | CAKI-1 > 100 µM | OVCAR-5 > 100 µM | SNB-19 22.6 µM

O=c1[nH]nc2c3n[nH]c(=O)n3c3ccccc3n12
inactive: LOX IMVI > 100 µM | K562 > 100 µM | OVCAR-4 > 100 µM | CCRF-CEM > 100 µM | COLO 205 > 100 µM | UACC-257 > 100 µM | NCI-H522 66.1 µM | SW-620 > 100 µM | SN12C > 100 µM | SF-295 > 100 µM | RPMI-8226 > 100 µM | HT-29 > 100 µM | CAKI-1 > 100 µM | OVCAR-5 > 100 µM | SNB-19 > 100 µM

O=C(O)CC[C@H](NC(=O)c1ccc(-n2nc3ccc(=O)cc-3[nH]c2=O)cc1)C(=O)O
inactive: K562 > 100 µM | OVCAR-4 > 100 µM | CCRF-CEM > 100 µM | COLO 205 > 100 µM | UACC-257 > 100 µM | NCI-H522 > 100 µM | SW-620 > 100 µM | SN12C > 100 µM | SR > 100 µM | SF-295 > 100 µM | RPMI-8226 > 100 µM | HT-29 > 100 µM | OVCAR-5 > 100 µM | SNB-19 > 100 µM

CCOC(=O)c1cc(/C=C/C(C)=C/C(=O)OC)oc1-c1ccccc1
inactive: LOX IMVI > 100 µM | K562 33.8 µM | OVCAR-4 63.5 µM | CCRF-CEM 48.9 µM | COLO 205 > 100 µM | UACC-257 61.8 µM | NCI-H522 39.7 µM | SW-620 > 100 µM | SN12C 73.8 µM | SF-295 50.8 µM | RPMI-8226 31.6 µM | HT-29 > 100 µM | CAKI-1 55.8 µM | OVCAR-5 > 100 µM | SNB-19 38.5 µM

CCOc1ccc(NC(=O)CC2Sc3ccccc3NC2=O)cc1 (stereo not given)
inactive: K562 65.2 µM | OVCAR-4 18.4 µM | CCRF-CEM > 100 µM | COLO 205 41.1 µM | UACC-257 > 100 µM | NCI-H522 > 100 µM | SW-620 14.5 µM | SN12C > 100 µM | SF-295 > 100 µM | RPMI-8226 65.5 µM | HT-29 85.5 µM | CAKI-1 89.9 µM | OVCAR-5 > 100 µM | SNB-19 54.1 µM

CC#CC1C(OC(=O)c2ccccc2)CCCC1(CI)N=[N+]=[N-] (stereo not given)
inactive: K562 28.4 µM | OVCAR-4 60.1 µM | CCRF-CEM 26.2 µM | COLO 205 > 100 µM | UACC-257 38.2 µM | NCI-H522 22.4 µM | SW-620 > 100 µM | SN12C > 100 µM | SR 17.5 µM | SF-295 87.5 µM | RPMI-8226 18.5 µM | HT-29 40.6 µM | CAKI-1 > 100 µM | OVCAR-5 > 100 µM

COC(OC)c1cc2c(cc1C(=O)[C@@]13CCC[C@@H]1NC(=O)O3)OCO2
inactive: K562 > 100 µM | OVCAR-4 > 100 µM | CCRF-CEM > 100 µM | UACC-257 > 100 µM | NCI-H522 > 100 µM | SW-620 > 100 µM | SN12C > 100 µM | SF-295 > 100 µM | HT-29 > 100 µM | CAKI-1 > 100 µM | OVCAR-5 > 100 µM | SNB-19 91.2 µM

CN(C)C(=Nc1nc(N(C)C)s[s+]1)N(C)C
inactive: K562 > 100 µM | OVCAR-4 > 100 µM | CCRF-CEM > 100 µM | UACC-257 > 100 µM | NCI-H522 > 100 µM | SW-620 > 100 µM | SN12C > 100 µM | SF-295 > 100 µM | RPMI-8226 > 100 µM | HT-29 > 100 µM | CAKI-1 > 100 µM | OVCAR-5 > 100 µM | SNB-19 > 100 µM

O=C1C=C(Nc2ccccc2C(=O)CC(=O)C(=O)Nc2cccc([N+](=O)[O-])c2)c2ccccc2C1=O
inactive: LOX IMVI 4.82 µM | K562 17.7 µM | OVCAR-4 26.9 µM | CCRF-CEM 3.3 µM | COLO 205 > 100 µM | UACC-257 27.2 µM | NCI-H522 21.8 µM | SW-620 25.6 µM | SN12C 23.4 µM | RPMI-8226 5.58 µM | HT-29 > 100 µM | CAKI-1 > 100 µM | OVCAR-5 > 100 µM | SNB-19 23.3 µM

Cc1nc(C(N)=S)sc1C(=O)/C=C/c1cccc(O)c1
inactive: LOX IMVI 45.2 µM | K562 29.9 µM | CCRF-CEM 28.4 µM | COLO 205 > 100 µM | UACC-257 > 100 µM | NCI-H522 90.4 µM | SW-620 82.8 µM | SN12C > 100 µM | SF-295 > 100 µM | RPMI-8226 25.9 µM | HT-29 > 100 µM | CAKI-1 > 100 µM | OVCAR-5 > 100 µM

COc1ccc(N2C(=O)C3c4[nH]c5ccccc5c4C4CCC(C(C)(C)C)CC4C3C2=O)cc1OC (stereo not given)
inactive: K562 28.2 µM | OVCAR-4 21.9 µM | CCRF-CEM 27.7 µM | COLO 205 31.2 µM | UACC-257 67 µM | NCI-H522 15.4 µM | SW-620 26.7 µM | SN12C 23 µM | SR 18.1 µM | SF-295 20.4 µM | RPMI-8226 22.2 µM | HT-29 33.9 µM | SNB-19 26.2 µM

OC1(C23CC4CC(CC(C4)C2)C3)CSCC1(O)C12CC3CC(CC(C3)C1)C2 (stereo not given)
inactive: K562 > 100 µM | OVCAR-4 > 100 µM | CCRF-CEM > 10 µM | COLO 205 > 100 µM | UACC-257 > 100 µM | NCI-H522 > 100 µM | SW-620 > 100 µM | SN12C > 100 µM | SR > 100 µM | SF-295 > 100 µM | RPMI-8226 > 100 µM | HT-29 > 100 µM | CAKI-1 > 100 µM | SNB-19 > 100 µM

COC(=O)N/N=C(\C)CC(=O)Nc1ccc(Cl)cc1
inactive: LOX IMVI > 100 µM | K562 > 100 µM | CCRF-CEM > 100 µM | COLO 205 > 100 µM | UACC-257 > 100 µM | NCI-H522 58.5 µM | SW-620 > 100 µM | SF-295 > 100 µM | RPMI-8226 > 100 µM | HT-29 > 100 µM | OVCAR-5 > 100 µM

Cn1nc2ccccc2cc1=O
inactive: LOX IMVI > 100 µM | K562 > 100 µM | OVCAR-4 > 100 µM | CCRF-CEM > 100 µM | COLO 205 > 100 µM | UACC-257 > 100 µM | SW-620 > 100 µM | SN12C > 100 µM | SF-295 > 100 µM | RPMI-8226 > 100 µM | HT-29 > 100 µM | CAKI-1 > 100 µM | OVCAR-5 > 100 µM | SNB-19 > 100 µM
